Measurements: the NIST ThermoML archive (doi:10.1016/j.fluid.2010.03.001)

Legend:
[1] = Liquid; for viscosity / mass density: 101.33 kPa; for viscosity: Concentric cylinders viscometry; for mass density: Vibrating tube method; for vapor or sublimation pressure: Ebulliometric method (Recirculating still)
[2] = xn = mol fraction of the nth substance listed; conditions: 101 kPa, Liquid, x1 = 1; for viscosity: Concentric cylinders viscometry; for mass density: Vibrating tube method

C=C(C)[C@H]1CC=C(C)CC1 [(R)-1-methyl-4-(1-methylethenyl)cyclohexene]
[1]
Conditions	mass density [kg/m3]	viscosity [mPa·s]
293.15 K	–	0.902
298.15 K	837.3	0.89
303.15 K	833.6	0.793
313.15 K	825.8	0.702
323.15 K	817.9	0.628
333.15 K	809.9	0.566
343.15 K	801.9	0.5
353.15 K	793.6	0.452
363.15 K	785.4	0.413
373.15 K	777.1	0.382

CCCCCO [pentan-1-ol]
[1]
Conditions	mass density [kg/m3]	vapor or sublimation pressure [kPa]	viscosity [mPa·s]
293.15 K	814.7	–	4.03
298.15 K	810.7	–	3.48
303.15 K	807.2	–	3.02
313.15 K	799.8	–	2.315
323.15 K	792.2	–	1.801
328.15 K	–	2.3	–
329.5 K	–	2.5	–
333.15 K	784.3	3.1	1.425
338.15 K	–	4.2	–
341.2 K	–	5	–
343.15 K	776.3	5.6	1.146
348.75 K	–	7.5	–
353.15 K	768	–	0.935
354.37 K	–	10	–
362.63 K	–	15	–
363.15 K	759.5	–	0.772
368.86 K	–	20	–
373.15 K	750.6	–	0.647
378.2 K	–	30	–
385.33 K	–	40	–
391.03 K	–	50	–
395.87 K	–	60	–
400.1 K	–	70	–
403.86 K	–	80	–
407.25 K	–	90	–
408.9 K	–	95.1	–

CCCCCO [pentan-1-ol] + C=C(C)[C@H]1CC=C(C)CC1
[2]
Conditions	mass density [kg/m3]	viscosity [mPa·s]
293.15 K	814.7	4.03
303.15 K	807.2	3.02
313.15 K	799.8	2.315
323.15 K	792.2	1.801
333.15 K	784.3	1.425
343.15 K	776.3	1.146
353.15 K	768	0.935
363.15 K	759.5	0.772
373.15 K	750.6	0.647
